Assay results reported in the supplement of paper PMC10883282.
± gives the standard deviation of the averaged measurements.

What was measured:
Experiment in all cases: relative viability vs DMSO control (72 h) (fraction); higher = more viable cells
VA-ES-BJ = system: VA-ES-BJ
Outline: (§1)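 Sarcoma cell lines were grown in 384-well plates seeded toward 80–90% confluence and exposed 24 h later to serially diluted compound. After 72 h at 37 °C and 5% CO2, with 0.1% DMSO vehicle and a 5 µM positive control on the plates, ATPLite was read. Relative viability, given as percent growth averaged over up to triplicate wells, was rescaled so that 1 is full and 0 is none.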

SK-LMS-1 = system: SK-LMS-1
Outline: as §1

SW982 = system: SW982
Outline: as §1

MES-SA = system: MES-SA
Outline: as §1

SW1353 = system: SW1353
Outline: as §1

SK-ES-1 = system: SK-ES-1
Outline: as §1

RD-ES = system: RD-ES
Outline: as §1

G401 = system: G401
Outline: as §1

HT1080 = system: HT1080
Outline: as §1

KHOS-240S = system: KHOS-240S
Outline: as §1

SYO-1 = system: SYO-1
Outline: as §1

RD = system: RD
Outline: as §1

C=CC(=O)N1CCC(CNc2ncnc(N)c2-c2ccc(Oc3ccccc3)cc2)CC1 [Evobrutinib]
Settings	relative viability
G401, 0.00017 µM	1.05 ± 0.04
G401, 0.00051 µM	1.01 ± 0.032
G401, 0.00152 µM	1.01 ± 0.044
G401, 0.00457 µM	1.02 ± 0.03
G401, 0.01372 µM	1.03 ± 0.02
G401, 0.04115 µM	1.03 ± 0.041
G401, 0.1235 µM	1 ± 0.037
G401, 0.3704 µM	1.02 ± 0.048
G401, 1.111 µM	0.982 ± 0.088
G401, 3.333 µM	1 ± 0.055
G401, 10 µM	0.894 ± 0.022
HT1080, 0.00017 µM	1.11 ± 0.033
HT1080, 0.00051 µM	1.1 ± 0.03
HT1080, 0.00152 µM	1.1 ± 0.021
HT1080, 0.00457 µM	1.14 ± 0.06
HT1080, 0.01372 µM	1.082 ± 0.002
HT1080, 0.04115 µM	1.08 ± 0.023
HT1080, 0.1235 µM	1.091 ± 0.0021
HT1080, 0.3704 µM	1.078 ± 0.0066
HT1080, 1.111 µM	1.07 ± 0.057
HT1080, 3.333 µM	1.1 ± 0.012
HT1080, 10 µM	1.08 ± 0.018
KHOS-240S, 0.00017 µM	1.09 ± 0.075
KHOS-240S, 0.00051 µM	1.06 ± 0.022
KHOS-240S, 0.00152 µM	1.08 ± 0.049
KHOS-240S, 0.00457 µM	1.12 ± 0.076
KHOS-240S, 0.01372 µM	1.1 ± 0.034
KHOS-240S, 0.04115 µM	1.09 ± 0.012
KHOS-240S, 0.1235 µM	1.08 ± 0.033
KHOS-240S, 0.3704 µM	1.07 ± 0.011
KHOS-240S, 1.111 µM	1.07 ± 0.017
KHOS-240S, 3.333 µM	1.04 ± 0.017
KHOS-240S, 10 µM	1.03 ± 0.032
MES-SA, 0.00017 µM	1 ± 0.05
MES-SA, 0.00051 µM	0.9618 ± 0.0083
MES-SA, 0.00152 µM	0.963 ± 0.027
MES-SA, 0.00457 µM	0.9579 ± 0.0076
MES-SA, 0.01372 µM	0.964 ± 0.028
MES-SA, 0.04115 µM	0.956 ± 0.0076
MES-SA, 0.1235 µM	0.968 ± 0.044
MES-SA, 0.3704 µM	0.933 ± 0.019
MES-SA, 1.111 µM	0.928 ± 0.014
MES-SA, 3.333 µM	0.892 ± 0.055
MES-SA, 10 µM	0.792 ± 0.035
RD, 0.00017 µM	1.06 ± 0.066
RD, 0.00051 µM	1.09 ± 0.062
RD, 0.00152 µM	1.09 ± 0.051
RD, 0.00457 µM	1.08 ± 0.05
RD, 0.01372 µM	1.11 ± 0.045
RD, 0.04115 µM	1.11 ± 0.065
RD, 0.1235 µM	1.12 ± 0.03
RD, 0.3704 µM	1.09 ± 0.088
RD, 1.111 µM	1.08 ± 0.046
RD, 3.333 µM	1.07 ± 0.074
RD, 10 µM	1.11 ± 0.04
RD-ES, 0.00017 µM	0.985 ± 0.011
RD-ES, 0.00051 µM	1 ± 0.038
RD-ES, 0.00152 µM	0.99 ± 0.018
RD-ES, 0.00457 µM	1 ± 0.0049
RD-ES, 0.01372 µM	1 ± 0.034
RD-ES, 0.04115 µM	1.03 ± 0.012
RD-ES, 0.1235 µM	1.01 ± 0.017
RD-ES, 0.3704 µM	0.981 ± 0.021
RD-ES, 1.111 µM	0.9603 ± 0.0071
RD-ES, 3.333 µM	0.976 ± 0.021
RD-ES, 10 µM	0.946 ± 0.025
SK-ES-1, 0.00017 µM	1.12 ± 0.014
SK-ES-1, 0.00051 µM	1.14 ± 0.029
SK-ES-1, 0.00152 µM	1.1 ± 0.037
SK-ES-1, 0.00457 µM	1.04 ± 0.089
SK-ES-1, 0.01372 µM	1.04 ± 0.031
SK-ES-1, 0.04115 µM	1.09 ± 0.048
SK-ES-1, 0.1235 µM	1.05 ± 0.042
SK-ES-1, 0.3704 µM	1.06 ± 0.034
SK-ES-1, 1.111 µM	1.03 ± 0.085
SK-ES-1, 3.333 µM	1.01 ± 0.044
SK-ES-1, 10 µM	1.02 ± 0.049
SK-LMS-1, 0.00017 µM	1.08 ± 0.013
SK-LMS-1, 0.00051 µM	1.1 ± 0.027
SK-LMS-1, 0.00152 µM	1.08 ± 0.011
SK-LMS-1, 0.00457 µM	1.08 ± 0.017
SK-LMS-1, 0.01372 µM	1.04 ± 0.024
SK-LMS-1, 0.04115 µM	1.11 ± 0.029
SK-LMS-1, 0.1235 µM	1.11 ± 0.049
SK-LMS-1, 0.3704 µM	1.05 ± 0.029
SK-LMS-1, 1.111 µM	1.08 ± 0.07
SK-LMS-1, 3.333 µM	0.997 ± 0.065
SK-LMS-1, 10 µM	0.981 ± 0.013
SW982, 0.00017 µM	1.04 ± 0.013
SW982, 0.00051 µM	1.09 ± 0.028
SW982, 0.00152 µM	1.11 ± 0.052
SW982, 0.00457 µM	1.07 ± 0.015
SW982, 0.01372 µM	1.08 ± 0.043
SW982, 0.04115 µM	1.068 ± 0.0072
SW982, 0.1235 µM	1.086 ± 0.0053
SW982, 0.3704 µM	1.07 ± 0.029
SW982, 1.111 µM	1.06 ± 0.02
SW982, 3.333 µM	1.07 ± 0.015
SW982, 10 µM	1.12 ± 0.02
SW1353, 0.00017 µM	1.07 ± 0.042
SW1353, 0.00051 µM	1.07 ± 0.019
SW1353, 0.00152 µM	1.09 ± 0.025
SW1353, 0.00457 µM	1.06 ± 0.029
SW1353, 0.01372 µM	1.02 ± 0.049
SW1353, 0.04115 µM	1.007 ± 0.0014
SW1353, 0.1235 µM	1.048 ± 0.0084
SW1353, 0.3704 µM	1.02 ± 0.043
SW1353, 1.111 µM	0.974 ± 0.067
SW1353, 3.333 µM	0.949 ± 0.016
SW1353, 10 µM	0.853 ± 0.068
SYO-1, 0.00017 µM	1.018 ± 0.0036
SYO-1, 0.00051 µM	1.02 ± 0.026
SYO-1, 0.00152 µM	1.03 ± 0.017
SYO-1, 0.00457 µM	1.02 ± 0.013
SYO-1, 0.01372 µM	1.03 ± 0.032
SYO-1, 0.04115 µM	0.998 ± 0.01
SYO-1, 0.1235 µM	0.992 ± 0.034
SYO-1, 0.3704 µM	0.994 ± 0.018
SYO-1, 1.111 µM	0.965 ± 0.036
SYO-1, 3.333 µM	0.953 ± 0.024
SYO-1, 10 µM	0.894 ± 0.059
VA-ES-BJ, 0.00017 µM	1.1 ± 0.028
VA-ES-BJ, 0.00051 µM	1.08 ± 0.027
VA-ES-BJ, 0.00152 µM	1.07 ± 0.012
VA-ES-BJ, 0.00457 µM	1.08 ± 0.043
VA-ES-BJ, 0.01372 µM	1.09 ± 0.048
VA-ES-BJ, 0.04115 µM	1.043 ± 0.0079
VA-ES-BJ, 0.1235 µM	1.06 ± 0.017
VA-ES-BJ, 0.3704 µM	1.06 ± 0.046
VA-ES-BJ, 1.111 µM	1.06 ± 0.042
VA-ES-BJ, 3.333 µM	1.1 ± 0.038
VA-ES-BJ, 10 µM	1.1 ± 0.032
